For one data set, the system named is Aphidius rhopalosiphi. Put plainly: LR50; higher = less toxic. The following applies: not reported; mortality.
The subject of the next data set is Lepomis macrochirus. The following applies: acute; duration: 96 hours; mortality.
The next data set concerns Canidae. The following applies: chronic; duration: 2 years; oral; diet; Dog Other; body weight.
In the next data set the test system is Apis mellifera. The following applies: acute; duration: 48 hours; oral; unspecified; mortality.
In a further data set the test system is Coturnix coturnix. The settings on record: acute; oral; mortality.
The test system of a further data set is Oncorhynchus mykiss. The settings on record: chronic/long-term; duration: 91 days; mortality.
Another data set concerns Bibionidae. The settings on record: chronic/long-term; duration: 28 days.
The next data set relates to Daphnia magna. The following applies: chronic/long-term; duration: 21 days; reproduction.
For a further data set, the system named is Tagia sp. The settings on record: acute; duration: 14 days; mortality.
[1] abbreviates: reproduction developmental, organ weight.

Each structure is given as a SMILES string. Values after ≈ are worked out from the molar mass of the structure shown.

A word on the NOAEL: it is the highest dose or exposure tested at which no adverse effect was seen. The molecule `CCOC(=O)[C@@H](C)Oc1ccc(Oc2nc3ccc(Cl)cc3o2)cc1` [Fenoxaprop-P-ethyl] displayed an LR50 with Aphidius rhopalosiphi of 46.4 g/ha. Further, the LD50 with Rattus norvegicus (acute, oral, mortality) was more than 3150 mg/kg-day; in the data set with Apis mellifera, more than 199 µg/piece; in the data set on Coturnix coturnix, 2000 mg/kg-day. Besides, the no-observed-adverse-effect level (NOAEL) with Rattus norvegicus (developmental, development) turned out to be 10 mg/kg-day; in the data set on Rattus norvegicus (setting [1]), 1.4 mg/kg-day; in the data set on Canidae, 1 mg/kg-day. Besides, the LC50 in the data set on Lepomis macrochirus is 0.19 µg/mL (≈ 0.525 µM); in the data set on Tagia sp., more than 1000 mg/kg. Besides, the figures for the NOEC with Oncorhynchus mykiss, in the data set with Bibionidae and in the data set with Daphnia magna were 0.036 mg/L, 0.2 mg/L and 0.22 mg/L, respectively.
With `CCOC(=O)C(C)Oc1ccc(Oc2nc3ccc(Cl)cc3o2)cc1` (stereo not given) [Fenoxaprop-ethyl], the NOAEL in the data set on Rattus norvegicus (developmental, development) came out at 10 mg/kg-day; in the data set with Rattus norvegicus (setting [1]), 1.4 mg/kg-day; in the data set on Canidae, 1 mg/kg-day.

Source of the values: EPA's ToxValDB 9.5 (doi:10.2903/j.efsa.2007.121r).
